Columns and labels:
Aβ-heme peroxidase = molecular target: T1, Aβ-heme peroxidase (Homo sapiens, UniProt P05067); assay: Inhibition of Aβ-heme peroxidase activity (TMB assay or HPLC); inhibitor screen; type: biochemical; conditions: for identified as inhibitor of Aβ-heme peroxidase activity in library screen: TMB assay; for peroxidase activity of Aβ-heme: TMB assay or HPLC
T1 construct: Amyloid-β (Aβ) peptide (American Peptide, Sunnyvale, Calif.) is dissolved in distilled deionized water; purchased American Peptide, Sunnyvale, Calif

SHSY5Y cells = type: cell-based, human
Description: (§1) The effect of Aβ on heme synthesis was used to test the biological effect of the Aβ and heme interaction. We expected an increase in heme synthesis due to depletion of regulatory heme if the binding between heme and Aβ occurs in the cell. […] A 40% increase in heme synthesis was seen after 2 h incubation with 0.1 μM Aβ. A 4-fold and 13-fold increase in heme synthesis was seen after 1 h of incubation with 1 and 10 μM Aβ, respectively. A 2.5-fold and 18-fold increase in heme synthesis was seen after 2 h of incubation with 1 and 10 μM Aβ, respectively. An increase in the uptake of cofactors of heme biosynthesis is necessary to support heme synthesis. […] A 55% increase in iron was seen after 2 h of incubation with 0.1 μM Aβ. […] A 2-fold and 8-fold increase in iron uptake was seen after 2 h of incubation with 1 and 10 μM Aβ, respectively. The exposure of SHSY5Y cells to Aβ was not toxic as measured by trypan blue exclusion tests and compared with controls.

[1] = test system: human neuroblastoma (SHSY5Y) cells; assay: Effect of Aβ on intracellular iron / iron uptake in SHSY5Y cells; type: cell-based
[2] = test system: human neuroblastoma (SHSY5Y) cells; assay: Effect of Aβ on heme synthesis in SHSY5Y cells; type: cell-based
Description: as §1

Aβ(1-40) = Aβ(1-40) (Homo sapiens, UniProt P05067); conditions: reference 13; cited from earlier work
Aβ(1-42) = Aβ(1-42) (Homo sapiens, UniProt P05067); conditions: reference 13; cited from earlier work
[3] = test system: Tg2576 APPSw transgenic mouse; conditions: chronic dose of curcumin, APPSw mice; Lim 2001; cited from earlier work
[4] = test system: Tg2576 APPSw transgenic mouse; conditions: curcumin-treated Tg2576 APPSw mouse; Lim et al 2001; cited from earlier work

T1 sequence (P05067 672-711 limits assumed): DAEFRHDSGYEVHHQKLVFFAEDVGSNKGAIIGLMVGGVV
Chain of Aβ(1-42) (P05067 672-713 limits assumed): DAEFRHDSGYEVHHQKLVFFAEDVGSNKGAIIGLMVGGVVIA
Chain of Aβ(1-40) (P05067 672-711 limits assumed): as the sequence (P05067 672-711 limits assumed) above

For coproporphyrin I, the “identified as inhibitor of Aβ-heme peroxidase activity in library screen” value (“identified as inhibitor” below) (Aβ-heme peroxidase) was “inhibitors”.
In the case of `Cc1cc2nc3ccc(N(C)C)cc3[s+]c2cc1N.[Cl-]` [toluidine blue], the “identified as inhibitor” value (Aβ-heme peroxidase) is reported as “inhibitors”.
For “Aβ: Amyloid-β (Aβ) peptide (American Peptide, Sunnyvale, Calif.)”, the “toxicity by trypan blue exclusion” value (SHSY5Y cells) was “not toxic”, the increase in iron ([1]; 0.1 μM Aβ, 2 h incubation) was 55% and the “increase in iron uptake” value ([1]; 1 μM Aβ, 1 h incubation) was 4 fold. For the same compound, the “increase in iron uptake” value ([1]; 10 μM Aβ, 1 h incubation) was 12.5 fold, the “increase in iron uptake” value ([1]; 10 μM Aβ, 2 h incubation) was 8 fold and the intracellular iron ([1]; Aβ 0.1, 1 and 10 μM) was “significantly increased”. For the same compound, the “increase in heme synthesis” value ([2]; 0.1 μM Aβ, 2 h incubation) was 40%, the “increase in heme synthesis” value ([2]; 1 μM Aβ, 1 h incubation) was 4 fold and the “increase in heme synthesis” value ([2]; 1 μM Aβ, 2 h incubation) was 2.5 fold. The “increase in heme synthesis” value ([2]; 10 μM Aβ, 1 h incubation) was 13 fold, the “increase in heme synthesis” value ([2]; 10 μM Aβ, 2 h incubation) was 18 fold and the synthesis of heme ([2]; Aβ 0.1, 1 and 10 μM) was “significantly increased”.
With `O=C(O)CCNO` [N-(2-carboxyethyl)hydroxylamine] the “identified as inhibitor” value (Aβ-heme peroxidase) was “inhibitors”.
In the case of `CC(C)NO` [N-isopropylhydroxylamine], the “identified as inhibitor” value (Aβ-heme peroxidase) is reported as “inhibitors”.
With `ONCc1ccccc1` [N-benzylhydroxylamine (NBHA), N-benzylhydroxylamine] the “peroxidase activity of Aβ-heme” value (Aβ-heme peroxidase; 100 μM N-benzylhydroxylamine) was “significantly inhibited”.
With `Cc1cc(N(C)C)cc2[s+]c3cc(N(C)C)cc(C)c3nc12` [1-9-dimethyl methylene blue] the “identified as inhibitor” value (Aβ-heme peroxidase) was “inhibitors”.
In the case of `CCNc1cc2[s+]c3cc(NCC)c(C)cc3nc2cc1C.[Cl-]` [new methylene blue], the “identified as inhibitor” value (Aβ-heme peroxidase) is reported as “inhibitors”.
For coproporphyrin III, the “identified as inhibitor” value (Aβ-heme peroxidase) was “inhibitors”.
In the case of uroporphyrin I, the “identified as inhibitor” value (Aβ-heme peroxidase) is reported as “inhibitors”.
With `O=[N+]([O-])CCCNO` [N-(3-nitropropyl)hydroxylamine] the “identified as inhibitor” value (Aβ-heme peroxidase) was “inhibitors”.
For `C=CC1=C(C)c2cc3[n-]c(cc4[n-]c(cc5nc(cc1n2)C(C)=C5C=C)c(C)c4CCC(=O)O)c(CCC(=O)O)c3C.[Fe+2]` [heme], the “aggregation of Aβ(1-40)” value (Aβ(1-40)) is listed as “prevented aggregation” and the “aggregation of Aβ(1-42)” value (Aβ(1-42)) is listed as “prevented aggregation”.
In the case of `ONC1CCCCC1` [N-cyclohexylhydroxylamine], the “identified as inhibitor” value (Aβ-heme peroxidase) is reported as “inhibitors”.
With uroporphyrin III the “identified as inhibitor” value (Aβ-heme peroxidase) was “inhibitors”.
With `CN(C)c1ccc2nc3ccc(N)cc3[s+]c2c1.[Cl-]` [azure A] the “identified as inhibitor” value (Aβ-heme peroxidase) was “inhibitors”.
For `CC(C)(C)NO` [N-tert-butylhydroxylamine], the “identified as inhibitor” value (Aβ-heme peroxidase) was “inhibitors”.
In the case of `O=C(CNO)Cc1ccccc1` [N-(benzylcarbonyl)methylhydroxylamine], the “identified as inhibitor” value (Aβ-heme peroxidase) is reported as “inhibitors”.
With `CNc1ccc2nc3ccc(N)cc3[s+]c2c1.[Cl-]` [azure C] the “identified as inhibitor” value (Aβ-heme peroxidase) was “inhibitors”.
With `OCCCCNO` [N-(4-hydroxybutyl)hydroxylamine] the “identified as inhibitor” value (Aβ-heme peroxidase) was “inhibitors”.
For `COc1cc(/C=C/C(=O)CC(=O)/C=C/c2ccc(O)c(OC)c2)ccc1O` [curcumin], the “insoluble Aβ” value [3] is given as “significantly reduces”, the “soluble Aβ” value [3] is given as “significantly reduces” and the oxidative damage [4] is given as “reduced oxidative damage”. The “peroxidase activity of Aβ-heme” value (Aβ-heme peroxidase; 1 μM curcumin) was “significantly inhibited”.
For azure B, the “identified as inhibitor” value (Aβ-heme peroxidase) was “inhibitors”.
With `CC(=O)NO` [N-(acetyl)hydroxylamine] the “identified as inhibitor” value (Aβ-heme peroxidase) was “inhibitors”.

Reference: patent US7285396B1, “Aβ-heme peroxidase” (Children's Hospital & Research Center at Oakland, priority 2006, dated 2007)
